From PMC8822458, “Synthesis and bioactivity of pyrrole-conjugated phosphopeptides” (Beilstein Journal of Organic Chemistry, 2022)
Read-outs that look alike come from different tables or passages of the source. *1 amine or outer side, *2 acyl side, *3 side chain or, on linkers, in order; H or OH if unused. Where a SMILES comes first, the peptide text is derived from it. [ ]: non-standard residue; d: D form. The star is where a group is joined. d(pY) = N[C@H](Cc1ccc(OP(=O)(O)O)cc1)C(=O)O; pY = N[C@@H](Cc1ccc(OP(=O)(O)O)cc1)C(=O)O; d(pS) = N[C@H](COP(=O)(O)O)C(=O)O; Guanidinoacetyl = N=C(N)NCC(=O)*; X2 = Cn1cc(N[*:1])cc1C(=O)[*:2]; X1 = Cn1cc(N)cc1C(=O)*

How the values were obtained:
[1] = tested on: HeLa cells; assay: MTT cell viability of HeLa cells
Protocol: We examined the cytotoxicity of the synthesized compounds by incubating them with HeLa cells because HeLa cells overexpress ALP and are widely available. By incubating 200 μM of each compound with HeLa cells for 24 hours, we employed MTT assay to determine the cell viability of the HeLa cells. […]
S3. Cel l culture and cell viability
HeLa cell line was purchased from American Type Culture Collection (ATCC, Manassas, VA, USA). HeLa cells were cultured in MEM medium with 100 U mL-1 penicillin and 100 μg mL-1 streptomycin. Cells were cultured at 37 °C in a humidified atmosphere of 5% CO 2.
MTT assay was used to determine the cytotoxicity of the compounds against HeLa cells.
Cells were seeded in 96-well plate at 1.0 × 10^5 cells/well for 24 hours followed by culture medium removal. Fresh culture medium containing different concentrations of compounds were then added. After incubated at 37 °C for 24/48/72 hours, the culture medium with compounds were replaced by fresh culture m edium plus 10 μL of MTT solution (5 mg/mL). After incubated at 37 °C for another 4 hours, 100 μL of SDS-HCl solution was added to stop the reduction and dissolve formazan formed. A DTX880 […]
Multimode Detector was used to measure the absorbance of each well at 595 nm, and cell viability was calculated as percentage relative to untreated cells. Data were […]

[2] = Circular dichroism of assemblies before and after ALP; type: physicochemical; conditions: circular dichroism before and after ALP (Figure S34)
Text: In addition to the TEM images, we used circular dichroism (CD) to reveal the secondary structures of the assemblies before and after enzymatic action.

[3] = set-up: method as in PMID 25230147; conditions: TEM, ALP 0.5 U/mL, PBS buffer pH 7.4; cited from earlier work
[4] = TEM morphology of peptide assemblies before and after ALP; type: physicochemical; conditions: 400 μM and 200 μM, PBS buffer pH 7.4
Text: Figure 3 A) TEM images of 1 before and after addition of ALP (0.5 U/mL) in PBS buffer (pH 7.4). Scale bar is 100 nm. Figure 3A was reprinted with permission from https://pubs.acs.org/doi/10.1021/bm5010355, Copyright 2014 American Chemical Society. This content is not subjected to CC-BY 4.0. Permission requests related to the material excerpted should be directed to the ACS. […] Scale bar is 200 nm.
Figure S1. Cell viability of HeLa cells treated with different compounds.
S4. TEM sample preparation
400-mesh copper grids coated with continuous thick carbon film (~35 nm) were glow discharged, on which 3 μL of samples were placed. After washed with ddH2O and uranyl acetate (UA), the sample-loaded grids were stained with UA. The residual UA was removed by filter paper and then air-dried.

O=C(Cc1ccc2ccccc2c1)N[C@H](Cc1ccccc1)C(=O)N[C@H](Cc1ccccc1)C(=O)N[C@H](Cc1ccc(OP(=O)(O)O)cc1)C(=O)O [compound 1, Nap-ffpy, reference compound]
Inhibition / compatibility with HeLa cells (in words) ([1]; 400 μM): significantly inhibits
Inhibition of HeLa cell proliferation (in words) ([1]; MTT, 200 μM, day 3): begins to reduce cell viability
Inhibition of HeLa cell proliferation (in words) ([1]; MTT, concentrations lower than 100 μM, over 3 days): hardly inhibits
Change of CD signal upon ALP treatment [2]: significant change
Change of morphology of the assemblies after ALP [3]: morphological transition from nanoparticles of 1 to networks of nanofibers

Cn1cc(NC(=O)c2cc(N)cn2C)cc1C(=O)NCC(=O)NCC(=O)NCC(=O)N[C@H](Cc1ccccc1)C(=O)N[C@H](Cc1ccccc1)C(=O)N[C@H](COP(=O)(O)O)C(=O)O [4a] (X1-[X2]GGG[dF][dF][d(pS)]-OH)
Cell viability of HeLa cells ([1]; MTT, 200 μM, 24 h, 37 °C, absorbance 595 nm, relative to untreated cells, n = 3 wells): 69.2%
Cell viability of HeLa cells ([1]; MTT, 400 μM, day 1, n = 3 wells): 72.3%
Inhibition of HeLa cell proliferation (in words) ([1]; MTT, 20 to 400 μM, day 2 and 3): largely vanishes
Change of morphology of the assemblies after ALP ([4]; 1 U/mL ALP, 24 h): little change in the morphology
Morphology of the assemblies before ALP [4]: networks of nanoparticles
Change of CD signal upon ALP treatment [2]: merely slight changes

Cn1cc(NC(=O)OC(C)(C)C)cc1C(=O)Nc1cc(C(=O)N[C@H](Cc2ccccc2)C(=O)N[C@H](Cc2ccccc2)C(=O)N[C@H](Cc2ccc(OP(=O)(O)O)cc2)C(=O)O)n(C)c1 [compound 9]
Cell viability of HeLa cells ([1]; 24 h, 200 μM): about 70%

Cn1cc(NC(=O)c2cc(NC(=O)c3cc(N)cn3C)cn2C)cc1C(=O)NCC(=O)NCC(=O)NCC(=O)N[C@@H](Cc1ccccc1)C(=O)N[C@@H](Cc1ccccc1)C(=O)N[C@@H](Cc1ccc(OP(=O)(O)O)cc1)C(=O)O [3b] (X1-[X2][X2]GGGFF[pY]-OH)
Cell viability of HeLa cells ([1]; 24 h, 200 μM): 97.2%

Cn1cc(NC(=O)c2cc(NC(=O)CNC(=N)N)cn2C)cc1C(=O)NCC(=O)NCC(=O)NCC(=O)N[C@H](Cc1ccccc1)C(=O)N[C@H](Cc1ccccc1)C(=O)N[C@H](Cc1ccc(OP(=O)(O)O)cc1)C(=O)O [10b] (Guanidinoacetyl-[X2][X2]GGG[dF][dF][d(pY)]-OH)
Cell viability of HeLa cells ([1]; 24 h, 200 μM): about 70%

Cn1cc(NC(=O)CNC(=N)N)cc1C(=O)NCC(=O)NCC(=O)NCC(=O)N[C@H](Cc1ccccc1)C(=O)N[C@H](Cc1ccccc1)C(=O)N[C@H](Cc1ccc(OP(=O)(O)O)cc1)C(=O)O [10a] (Guanidinoacetyl-[X2]GGG[dF][dF][d(pY)]-OH)
Cell viability of HeLa cells ([1]; 24 h, 200 μM): about 70%

Cn1cc(NC(=O)c2cc(N)cn2C)cc1C(=O)NCC(=O)NCC(=O)NCC(=O)N[C@@H](Cc1ccccc1)C(=O)N[C@@H](Cc1ccccc1)C(=O)N[C@@H](Cc1ccc(OP(=O)(O)O)cc1)C(=O)O [3a] (X1-[X2]GGGFF[pY]-OH)
Cell viability of HeLa cells ([1]; 24 h, 200 μM): 86.0%

Cn1cc(N)cc1C(=O)Nc1cc(C(=O)Nc2cc(C(=O)N[C@H](Cc3ccccc3)C(=O)N[C@H](Cc3ccccc3)C(=O)N[C@H](Cc3ccc(OP(=O)(O)O)cc3)C(=O)O)n(C)c2)n(C)c1 [2b]
Cell viability of HeLa cells ([1]; 24 h, 200 μM): 142.6%

Cn1cc(N)cc1C(=O)NCC(=O)NCC(=O)NCC(=O)N[C@H](Cc1ccccc1)C(=O)N[C@H](Cc1ccccc1)C(=O)N[C@H](Cc1ccc(OP(=O)(O)O)cc1)C(=O)O [2f, Py-GGGffpy] (X1-GGG[dF][dF][d(pY)]-OH)
Cell viability of HeLa cells ([1]; 24 h, 200 μM): 92.8%
